# Molecular target: PD-1/PD-L1 interaction (PD-1-Ig / PD-L1-His) (Homo sapiens (Human), UniProt Q9NZQ7)
# Assay: PD-1/PD-L1 Homogenous Time-Resolved Fluorescence (HTRF) binding assay
# Conditions: PD-L1-His 10 nM final, PD-1-Ig 20 nM final
# Excerpt: The ability of the compounds of the invention to bind to PD-L1 was investigated using a PD-1/PD-L1 Homogenous Time-Resolved Fluorescence (HTRF) binding assay.
# The interaction of PD-1 and PD-L1 can be assessed using soluble, purified preparations of the extracellular domains of the two proteins. The PD-1 and PD-L1 protein extracellular domains were expressed as fusion proteins with detection tags, for PD-1, the tag was the Fc portion of Immunoglobulin (PD-1-Ig) and for PD-L1 it was the 6 histidine motif (PD-L1-His). All binding studies were performed in an HTRF assay buffer consisting of dPBS supplemented with 0.1% […] bovine serum albumin and 0.05% (v/v) Tween-20. For the h/PD-L1-His binding assay, inhibitors were pre-incubated with PD-L1-His (10 nM final) for 15 m in 4 μl of assay buffer, followed by addition of PD-1-Ig (20 nM final) in 1 μl of assay buffer and further incubation for 15 m. HTRF detection was achieved using europium crypate-labeled anti-Ig (1 nM final) and allophycocyanin (APC) labeled anti-His (20 nM final). Antibodies were diluted in HTRF detection buffer and 5 μl was dispensed on top of the binding reaction. The reaction mixture was allowed to equilibrate for 30 minutes and the resulting signal (665 nm/620 nm ratio) was obtained using an EnVision fluorometer. Additional binding assays were established between the human proteins PD-1-Ig/PD-L2-His (20 & 5 nM, respectively) and CD80-His/PD-L1-Ig (100 & 10 nM, respectively).
# Recombinant Proteins: Human PD-1 (25-167) with a C-terminal human Fc domain of immunoglobulin G (Ig) epitope tag [hPD-1 (25-167)-3S-IG] and human PD-L1 (18-239) with a C-terminal His epitope tag [hPD-L1(18-239)-TVMV-His] were expressed in HEK293T cells and purified sequentially by ProteinA affinity chromatography and size exclusion chromatography. Human PD-L2-His and CD80-His was obtained through commercial sources.
# Homogenous Time-Resolved Fluorescence (HTRF) Assays of Binding of Soluble PD-1 to Soluble PD-L1. Soluble PD-1 and soluble PD-L1 refers to proteins with carboxyl-end truncations that remove the transmembrane-spanning regions and are fused to heterologous sequences, specifically the Fc portion of the human immunoglobuling G sequence (Ig) or the hexahistidine epitope tag (His). All binding studies were performed in an HTRF assay buffer consisting of dPBS supplemented with 0.1% (w/v) bovine serum albumin and 0.05% (v/v) Tween-20. For the PD-1-Ig/PD-L1-His binding assay, inhibitors were pre-incubated with PD-L1-His (10 nM final) for 15 m in 4 μl of assay buffer, followed by addition of PD-1-Ig (20 nM final) in 1 μl of assay buffer and further incubation for 15 m. PD-L1 fusion proteins from either human, cynomologous macaques, mouse, or other species were used. HTRF detection was achieved using europium crypate-labeled anti-Ig monoclonal antibody (1 nM final) and allophycocyanin (APC) labeled anti-His monoclonal antibody (20 nM final). Antibodies were diluted in HTRF detection buffer and 5 μl was dispensed on top of binding reaction. The reaction was allowed to equilibrate for 30 minutes and signal (665 nm/620 nm ratio) was obtained using an EnVision fluorometer. Additional binding assays were established between PD-1-Ig/PD-L2-His (20 and 5 nM, respectively), CD80-His/PD-L1-Ig (100 and 10 nM, respectively) and CD80-His/CTLA4-Ig (10 and 5 nM, respectively).
# Recombinant Proteins. Carboxyl-truncated human PD-1 (amino acids 25-167) with a C-terminal human Ig epitope tag [hPD-1 (25-167)-3S-IG] and human PD-L1 (amino acids 18-239) with a C-terminal His epitope tag [hPD-L1(19-239)-tobacco vein mottling virus protease cleavage site (TVMV)-His] were expressed in HEK293T cells and purified sequentially by recombinant Protein A affinity chromatography and size exclusion chromatography. Human PD-L2-His (Sino Biologicals), CD80-His (Sino Biologicals), CTLA4-Ig (RnD Systems) were all obtained through commercial sources.
# PD-1/PD-L1 interaction (PD-1-Ig / PD-L1-His), sequence (Q9NZQ7 18-239): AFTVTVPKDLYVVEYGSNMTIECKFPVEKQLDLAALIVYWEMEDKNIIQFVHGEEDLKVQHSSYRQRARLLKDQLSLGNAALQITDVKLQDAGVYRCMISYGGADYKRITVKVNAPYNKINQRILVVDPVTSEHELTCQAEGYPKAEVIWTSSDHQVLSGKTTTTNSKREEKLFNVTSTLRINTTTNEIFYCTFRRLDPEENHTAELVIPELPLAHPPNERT
row,SMILES,IC50 [nM]
1,Cc1c(COc2cc(OCc3cncc(C#N)c3)c(CN[C@H]3CCOC3=O)cc2Cl)cccc1-c1cccc(OCC2CCCN(C)C2)c1Cl (stereo partly drawn) [Compound 1001],2.7
2,Cc1c(COc2cc(OCc3cncc(C#N)c3)c(CN[C@@H]3CCOC3=O)cc2Cl)cccc1-c1cccc(OCC2CCCN(C)C2)c1Cl (stereo partly drawn) [Compound 1002],3.5
3,Cc1c(COc2cc(OCc3cncc(C#N)c3)c(CN[C@H]3COC(=O)C3)cc2Cl)cccc1-c1cccc(OCC2CCCN(C)C2)c1Cl (stereo partly drawn) [Compound 1003],2
4,Cc1c(COc2cc(OCc3cncc(C#N)c3)c(CN[C@@H]3COC(=O)C3)cc2Cl)cccc1-c1cccc(OCC2CCCN(C)C2)c1Cl (stereo partly drawn) [Compound 1004],3.1
5,Cc1c(COc2cc(OCc3cncc(C#N)c3)c(CNC3(C)CCOC3=O)cc2Cl)cccc1-c1cccc(OCC2CCCN(C)C2)c1Cl (stereo not drawn) [Compound 1005],1.7
6,Cc1c(COc2cc(OCc3cncc(C#N)c3)c(CNC3CC(C)OC3=O)cc2Cl)cccc1-c1cccc(OCC2CCCN(C)C2)c1Cl (stereo not drawn) [Compound 1006],2.6
7,Cc1c(COc2cc(OCc3cncc(C#N)c3)c(CNC3CC(C)(C)OC3=O)cc2Cl)cccc1-c1cccc(OCC2CCCN(C)C2)c1Cl (stereo not drawn) [Compound 1007],3.5
8,Cc1c(COc2cc(OCc3cncc(C#N)c3)c(CNC3C(=O)OCC3(C)C)cc2Cl)cccc1-c1cccc(OCC2CCCN(C)C2)c1Cl (stereo not drawn) [Compound 1008],4.4
9,Cc1c(COc2cc(OCc3cncc(C#N)c3)c(CNC3(C)CC(C)(C)OC3=O)cc2Cl)cccc1-c1cccc(OCC2CCCN(C)C2)c1Cl (stereo not drawn) [Compound 1009],3
10,Cc1c(COc2cc(OCc3cncc(C#N)c3)c(CN[C@H]3CCNC3=O)cc2Cl)cccc1-c1cccc(OCC2CCCN(C)C2)c1Cl (stereo partly drawn) [Compound 1010],2.3
11,Cc1c(COc2cc(OCc3cncc(C#N)c3)c(CNC3CCNC3=O)cc2Cl)cccc1-c1cccc(OCC2CCCN(C)C2)c1Cl (stereo not drawn) [Compound 1011],1.5
12,Cc1c(COc2cc(OCc3cncc(C#N)c3)c(CNC3CCN(C)C3=O)cc2Cl)cccc1-c1cccc(OCC2CCCN(C)C2)c1Cl (stereo not drawn) [Compound 1012],2.9
13,Cc1c(COc2cc(OCc3cncc(C#N)c3)c(CN[C@H]3CCCNC3=O)cc2Cl)cccc1-c1cccc(OCC2CCCN(C)C2)c1Cl (stereo partly drawn) [Compound 1013],4
14,Cc1c(COc2cc(OCc3cncc(C#N)c3)c(CNC3CCCNC3=O)cc2Cl)cccc1-c1cccc(OCC2CCCN(C)C2)c1Cl (stereo not drawn) [Compound 1014],3.2
15,Cc1c(COc2cc(OCc3cncc(C#N)c3)c(CNC3CCC(=O)NC3=O)cc2Cl)cccc1-c1cccc(OCC2CCCN(C)C2)c1Cl (stereo not drawn) [Compound 1015],2.4
16,Cc1c(COc2cc(OCc3cncc(C#N)c3)c(CNC3(C)CCOC3=O)cc2Cl)cccc1-c1cccc(COc2cc(OCc3cncc(C#N)c3)c(CNC3(C)CCOC3=O)cc2Cl)c1C (stereo not drawn) [Compound 1016],110
17,Cc1c(COc2cc(OCc3cncc(C#N)c3)c(CO)cc2Cl)cccc1-c1cccc(COc2cc(OCc3cncc(C#N)c3)c(CNC3(C)CCOC3=O)cc2Cl)c1C (stereo not drawn) [Compound 1017],112
18,Cc1c(COc2cc(OCc3cncc(C#N)c3)c(CNC3CCOC3=O)cc2Cl)cccc1-c1cccc(COc2cc(OCc3cncc(C#N)c3)c(CNC3CCOC3=O)cc2Cl)c1C (stereo not drawn) [Compound 1018],15
19,Cc1c(COc2cc(OCc3cncc(C#N)c3)c(CN[C@H]3CCOC3=O)cc2Cl)cccc1-c1cccc(COc2cc(OCc3cncc(C#N)c3)c(CN[C@H]3CCOC3=O)cc2Cl)c1C [Compound 1019],18.3
20,Cc1c(COc2cc(OCc3cncc(C#N)c3)c(CN[C@@H]3CCOC3=O)cc2Cl)cccc1-c1cccc(COc2cc(OCc3cncc(C#N)c3)c(CN[C@@H]3CCOC3=O)cc2Cl)c1C [Compound 1020],7.3
21,Cc1c(COc2cc(OCc3cncc(C#N)c3)c(CNC3CC(=O)OC3(C)C)cc2Cl)cccc1-c1cccc(COc2cc(OCc3cncc(C#N)c3)c(CNC3CC(=O)OC3(C)C)cc2Cl)c1C (stereo not drawn) [Compound 1021],121

# Reference: US20240327389A1, “LACTONE AND LACTAM CONTAINING COMPOUNDS USEFUL AS IMMUNOMODULATORS” (BRISTOL-MYERS SQUIBB COMPANY, priority 2021, published 2024)
